According to the NIST ThermoML archive (doi:10.1016/j.fluid.2016.08.002):
Numbers after ± are expanded uncertainties.

Experiment: xn = mol fraction of the nth substance listed
Details: Gas, Vibrating tube method

S [hydrogen sulfide] + C
mass density (273.32 K, 16120 kPa, x2 = 0.8685): 204.24 ± 2 kg/m3 | mass density (273.32 K, 16817 kPa, x2 = 0.8685): 211.55 ± 2.1 kg/m3 | mass density (273.33 K, 17352 kPa, x2 = 0.8685): 216.85 ± 2.2 kg/m3 | mass density (273.33 K, 21405 kPa, x2 = 0.8685): 250.29 ± 1.3 kg/m3 | mass density (273.34 K, 17978 kPa, x2 = 0.8685): 222.75 ± 2.3 kg/m3 | mass density (273.34 K, 18233 kPa, x2 = 0.8685): 225.06 ± 2.3 kg/m3 | mass density (273.35 K, 18773 kPa, x2 = 0.8685): 229.81 ± 2.2 kg/m3 | mass density (273.35 K, 19531 kPa, x2 = 0.8685): 236.12 ± 2.1 kg/m3 | mass density (273.36 K, 20692 kPa, x2 = 0.8685): 245.12 ± 1.6 kg/m3 | mass density (273.37 K, 20048 kPa, x2 = 0.8685): 240.23 ± 1.8 kg/m3 | mass density (273.37 K, 24085 kPa, x2 = 0.714): 364.7 ± 1.6 kg/m3 | mass density (293.18 K, 239 kPa, x2 = 0.8685): 1.86 ± 0.36 kg/m3 | mass density (293.18 K, 469 kPa, x2 = 0.8685): 3.71 ± 0.38 kg/m3 | mass density (293.18 K, 2890 kPa, x2 = 0.8685): 25.81 ± 0.72 kg/m3 | mass density (293.18 K, 8263 kPa, x2 = 0.8685): 79.99 ± 1 kg/m3 | mass density (293.18 K, 8722 kPa, x2 = 0.8685): 85.68 ± 1 kg/m3 | mass density (293.18 K, 9972 kPa, x2 = 0.8685): 100.39 ± 1.1 kg/m3 | mass density (293.18 K, 12003 kPa, x2 = 0.8685): 124.94 ± 1.3 kg/m3 | mass density (293.18 K, 12415 kPa, x2 = 0.8685): 130.08 ± 1.4 kg/m3 | mass density (293.18 K, 12830 kPa, x2 = 0.8685): 135.13 ± 1.4 kg/m3 | mass density (293.18 K, 13726 kPa, x2 = 0.8685): 145.96 ± 1.5 kg/m3 | mass density (293.19 K, 792 kPa, x2 = 0.8685): 6.46 ± 0.44 kg/m3 | mass density (293.19 K, 1341 kPa, x2 = 0.8685): 11.22 ± 0.52 kg/m3 | mass density (293.19 K, 2300 kPa, x2 = 0.8685): 20.14 ± 0.64 kg/m3 | mass density (293.19 K, 3396 kPa, x2 = 0.8685): 30.35 ± 0.76 kg/m3 | mass density (293.19 K, 3988 kPa, x2 = 0.8685): 35.82 ± 0.82 kg/m3 | mass density (293.19 K, 4428 kPa, x2 = 0.8685): 40.25 ± 0.84 kg/m3 | mass density (293.19 K, 6909 kPa, x2 = 0.8685): 65.4 ± 0.95 kg/m3 | mass density (293.19 K, 7335 kPa, x2 = 0.8685): 70.05 ± 0.97 kg/m3 | mass density (293.19 K, 7786 kPa, x2 = 0.8685): 74.96 ± 0.99 kg/m3 | mass density (293.19 K, 9097 kPa, x2 = 0.8685): 90.09 ± 1.1 kg/m3 | mass density (293.19 K, 9534 kPa, x2 = 0.8685): 95.16 ± 1.1 kg/m3 | mass density (293.19 K, 10368 kPa, x2 = 0.8685): 105.2 ± 1.2 kg/m3 | mass density (293.19 K, 10794 kPa, x2 = 0.8685): 110.28 ± 1.2 kg/m3 | mass density (293.19 K, 11183 kPa, x2 = 0.8685): 115.06 ± 1.3 kg/m3 | mass density (293.19 K, 11608 kPa, x2 = 0.8685): 120.16 ± 1.3 kg/m3 | mass density (293.19 K, 13230 kPa, x2 = 0.8685): 140.02 ± 1.5 kg/m3 | mass density (293.19 K, 16228 kPa, x2 = 0.8685): 174.96 ± 1.8 kg/m3 | mass density (293.19 K, 16699 kPa, x2 = 0.8685): 180.07 ± 1.9 kg/m3 | mass density (293.19 K, 17682 kPa, x2 = 0.8685): 190.29 ± 2 kg/m3 | mass density (293.2 K, 1820 kPa, x2 = 0.8685): 15.41 ± 0.58 kg/m3 | mass density (293.2 K, 4887 kPa, x2 = 0.8685): 44.78 ± 0.88 kg/m3 | mass density (293.2 K, 5494 kPa, x2 = 0.8685): 50.99 ± 0.91 kg/m3 | mass density (293.2 K, 5964 kPa, x2 = 0.8685): 55.59 ± 0.93 kg/m3 | mass density (293.2 K, 6411 kPa, x2 = 0.8685): 60.21 ± 0.93 kg/m3 | mass density (293.2 K, 14242 kPa, x2 = 0.8685): 152.42 ± 1.6 kg/m3 | mass density (293.2 K, 14579 kPa, x2 = 0.8685): 156.48 ± 1.6 kg/m3 | mass density (293.2 K, 14924 kPa, x2 = 0.8685): 160.62 ± 1.7 kg/m3 | mass density (293.2 K, 15365 kPa, x2 = 0.8685): 165.51 ± 1.7 kg/m3 | mass density (293.2 K, 15806 kPa, x2 = 0.8685): 170.31 ± 1.8 kg/m3 | mass density (293.2 K, 17183 kPa, x2 = 0.8685): 185.14 ± 2 kg/m3 | mass density (293.2 K, 18163 kPa, x2 = 0.8685): 195.16 ± 2.1 kg/m3 | mass density (293.2 K, 20932 kPa, x2 = 0.8685): 220.42 ± 1 kg/m3 | mass density (293.2 K, 21495 kPa, x2 = 0.8685): 224.99 ± 0.95 kg/m3 | mass density (293.2 K, 27629 kPa, x2 = 0.8685): 265.96 ± 0.74 kg/m3 | mass density (293.2 K, 28496 kPa, x2 = 0.8685): 270.59 ± 0.73 kg/m3 | mass density (293.21 K, 1117 kPa, x2 = 0.8685): 9.2 ± 0.48 kg/m3 | mass density (293.21 K, 23505 kPa, x2 = 0.8685): 240.2 ± 0.85 kg/m3 | mass density (293.21 K, 25865 kPa, x2 = 0.8685): 255.77 ± 0.78 kg/m3 | mass density (293.21 K, 26669 kPa, x2 = 0.8685): 260.49 ± 0.75 kg/m3 | mass density (293.21 K, 29415 kPa, x2 = 0.8685): 275.27 ± 0.72 kg/m3 | mass density (293.21 K, 29995 kPa, x2 = 0.8685): 278.16 ± 0.73 kg/m3 | mass density (293.21 K, 30419 kPa, x2 = 0.8685): 280.17 ± 0.72 kg/m3 | mass density (293.22 K, 20355 kPa, x2 = 0.8685): 215.54 ± 1.3 kg/m3 | mass density (293.22 K, 24254 kPa, x2 = 0.8685): 245.19 ± 0.82 kg/m3 | mass density (293.22 K, 25052 kPa, x2 = 0.8685): 250.52 ± 0.8 kg/m3
